# Test results as given in patent publication US20030073731A1, “Compositions and methods of the use thereof achiral analogues of CC-1065 and the duocarmycins” (priority 2000, published 2003).
# Like-named read-outs stand apart in the source and are kept apart here.
# Tests used:
# [1] = tested on: PC3 (human prostate cancer cells); assay: cells; format: cell-based
# Procedure: Cells were seeded in 96-well microtiter plates at densities of 1000 cells/well. The optimal seeding density was determined to ensure exponential growth in control wells throughout the experimental period and to obtain a linear relationship between absorbance at 492 nm and cell number when analyzed by the sulforhodamine B (SRB) assay (43). 24 hours after seeding the cells were incubated for 1 hour or continuously for 3 days with the drugs (concentration range 0.01 to 500 pM). The cells were washed once and then incubated in drug free medium for 6 days. At the end of the incubation cell growth was determined by the SRB assay, which quantifies viable cells by measuring their total cellular protein content. […] Similar studies were conducted against the growth of PC3 (human prostate cancer cells) and MCF-7 (human breast cancer cells).
# SR = assay: cells; format: cell-based, human
# MALME-3M = format: cell-based, human
# IGROV1 = assay: cells; format: cell-based, human
# MCF7/ADR-RES = assay: cells; format: cell-based, human
# CAKI-1 [2] = tested on: CAKI-1
# [3] = tested on: K562 human chronic myeloid leukemia cells; assay: cells; format: cell-based
# Procedure: The cytotoxicity was determined using a MTT tetrazolium dye assay (42). […] The incubation was terminated by centrifugation (5 minutes, 300 g) and the cells were washed once with drug-free medium. Following the appropriate drug treatment, the cells were transferred to 96-well microtitre plates, 10^4 cells per well, 8 wells per sample. Plates were then kept in the dark at 37° C. in a humidified atmosphere containing 5% CO2. […] Following incubation of the plates for 4 days (to allow control cells to increase in number by 10 fold) 20 μL of a 5 mg/mL solution of MTT in phosphate buffered saline was added to each well and the plates further incubated for 5 hours. The plates were then centrifuged for 5 minutes at 300 g and the bulk of the medium pipetted from the cell pellet leaving 10-20 μL per well. 200 μL DMSO was added to each well and the samples agitated to ensure complete mixing. The optical density was the read at a wavelength of 550 nm on a Titertek Multiscan ELISA plate reader, and the dose-response curve was constructed.
# [4] = NCI in-vitro cytotoxicity screen, Breast Cancer panel; format: cell-based, human; conditions: Homo sapiens, read-out: LC50
# Procedure: (§1) The compounds of this invention were also tested against the panel of 60 human cancer cell lines at the National Cancer Institute, Bethesda, Md. […] The cytotoxicity studies were conducted using a 48 hour exposure, and measuring the optical density of sulforhodamine B-derived color.
# T-470 = assay: as above; format: cell-based, human; conditions: T-470
# Procedure: as §1
# HOP-62 = assay: cells; conditions: Homo sapiens
# NCI-H23 = assay: cells; conditions: Homo sapiens
# NCI-H522 = assay: cells; conditions: Homo sapiens
# KM12 = assay: cells; conditions: Homo sapiens
# SNB-19 = assay: cells; conditions: Homo sapiens
# UACC-62 = assay: cells; conditions: Homo sapiens
# ACHN = assay: cells; conditions: Homo sapiens
# CAKI-1 [5] = assay: cells; conditions: Homo sapiens
# TK-10 = assay: cells; conditions: Homo sapiens
# MCF7 = assay: cells; conditions: Homo sapiens
# MDA-MB-231/ATCC = assay: cells; conditions: Homo sapiens
compound,measurement,setting,value
4-(2-Chloroethyl)-3-[5-(5-benzofuran-2-carboxamido)indole-2-carboxamido]phenol [Compound 1],IC50,"[1]; PC3, Continuous exposure",3000 nM
same,GI50,SR,852 nM
same,TGI,SR,8.12E-06 Molar
same,GI50,MALME-3M,1840 nM
same,TGI,MALME-3M,3.56E-06 Molar
same,GI50,IGROV1,1500 nM
same,TGI,IGROV1,3.41E-06 Molar
same,GI50,MCF7/ADR-RES; MCF7/ADR-RES,1650 nM
same,TGI,MCF7/ADR-RES; MCF7/ADR-RES,3.79E-06 Molar
same,Percent Growth,"MCF7/ADR-RES; MCF7/ADR-RES, Log10 Concentration (Molar) −4.0",−55%
same,Percent Growth,"MCF7/ADR-RES; MCF7/ADR-RES, Log10 Concentration (Molar) −7.0",97%
same,GI50,K-562,2880 nM
same,TGI,K-562,9.59E-06 Molar
same,GI50,MOLT-4,1140 nM
same,GI50,HOP-92,2620 nM
same,GI50,HCT-116,1940 nM
same,TGI,HCT-116,5.73E-06 Molar
same,GI50,SF-295,2320 nM
same,TGI,SF-295,6.46E-06 Molar
same,GI50,LOX IMVI,2430 nM
same,TGI,LOX IMVI,6.93E-06 Molar
same,GI50,M14,1490 nM
same,TGI,M14,3.19E-06 Molar
same,GI50,SK-MEL-28,2400 nM
same,TGI,SK-MEL-28,6.10E-06 Molar
same,GI50,SK-MEL-5,1730 nM
same,TGI,SK-MEL-5,3.34E-06 Molar
same,GI50,UACC-257,1880 nM
same,TGI,UACC-257,3.40E-06 Molar
same,GI50,OVCAR-3,2130 nM
same,TGI,OVCAR-3,4.69E-06 Molar
same,GI50,SK-OV-3,2930 nM
same,TGI,SK-OV-3,7.66E-06 Molar
same,GI50,CAKI-1 [2],2300 nM
same,TGI,CAKI-1 [2],7.19E-06 Molar
same,GI50,SN12C,3100 nM
same,TGI,SN12C,9.41E-06 Molar
same,GI50,MDA-N,2280 nM
same,TGI,MDA-N,5.47E-06 Molar
"COC(=O)c1[nH]c2c(O)cc(NC(=O)c3cc4cc(OC)c(OC)c(OC)c4[nH]3)c(CCCl)c2c1C(=O)OC [Compound 22, Dimethyl 4-(2-chloroethyl)-7-hydroxy-5-(5,6,7-trimethoxyindole-2-carboxamido)indole-2,3-dicarboxylate]",IC50,[3]; 1 hour exposure,310 ± 220 nM
same,IC50,"[3]; 72 h, continuous exposure (3 days)",250 ± 96 nM
same,IC50,"[1]; Homo sapiens, PC3, 1 hour exposure",350 nM
same,IC50,"[1]; Homo sapiens, PC3, Continuous exposure",50 nM
same,GI50,"SR; Homo sapiens, SR, SB",5.6 nM
same,GI50,"IGROV1; Homo sapiens, IGROV-1, IGROV1",62.1 nM
same,GI50,"MCF7/ADR-RES; Homo sapiens, NCI/ADR-RES",137 nM
same,CC50,[4],> 50000 nM
same,GI50,T-470; Homo sapiens,171 nM
same,Percent Growth,T-470; Log10 Concentration −4.3,14%
same,TGI,HOP-92; HOP-92,2.57E−07 Molar
same,GI50,HOP-62; HOP-62,91.4 nM
same,CC50,"HOP-62; HOP-62, read-out: LC50",8510 nM
same,GI50,NCI-H23; NCI-H23,67.5 nM
same,CC50,"NCI-H23; NCI-H23, read-out: LC50",> 50000 nM
same,GI50,NCI-H522; NCI-H522,57.7 nM
same,CC50,"NCI-H522; NCI-H522, read-out: LC50",373 nM
same,GI50,KM12; KM12,87.4 nM
same,CC50,"KM12; KM12, read-out: LC50",474 nM
same,GI50,SNB-19; SNB-19,173 nM
same,CC50,"SNB-19; SNB-19, read-out: LC50",> 50000 nM
same,GI50,UACC-62; UACC-62,78.2 nM
same,CC50,"UACC-62; UACC-62, read-out: LC50",436 nM
same,GI50,ACHN,44.6 nM
same,CC50,ACHN; read-out: LC50,> 50000 nM
same,GI50,CAKI-1 [5]; CAKI-1,147 nM
same,CC50,"CAKI-1 [5]; CAKI-1, read-out: LC50",> 50000 nM
same,GI50,TK-10; TK-10,272 nM
same,CC50,"TK-10; TK-10, read-out: LC50",> 50000 nM
same,GI50,MCF7; MCF7,22.4 nM
same,CC50,"MCF7; MCF7, read-out: LC50",47500 nM
same,GI50,MDA-MB-231/ATCC; MDA-MB-231,171 nM
same,CC50,"MDA-MB-231/ATCC; MDA-MB-231, read-out: LC50",> 50000 nM
